Assay results as given in PubChem BioAssay AID328 (DTP/NCI, 2004).
Values joined by “and” are separate entries in the source; they are usually repeats but may differ in a detail not shown here. Equal values may be shown once. Toxic doses and inconclusive results are not listed.

Tested on: BDF1 mice, P388 leukemia ip, median survival T/C
Test: NCI In Vivo Anticancer Drug Screen. Data for tumor model P388 Leukemia (intraperitoneal) in B6D2F1 (BDF1) mice
Conditions: endpoint: median survival time, higher = longer survival
Method in brief: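 T/C = treated-group survival ÷ vehicle-control survival; tumour transplanted into mice before dosing.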

[1] = dose: 12.5 mg/kg/injection, schedule: Q01DX009 (ip), vehicle: Klucel (hydroxypropylcellulose) (HPC)
[2] = dose: 25.0 mg/kg/injection, schedule: Q01DX009 (ip), vehicle: Klucel (hydroxypropylcellulose) (HPC)
[3] = dose: 100.0 mg/kg/injection, schedule: Q01DX009 (ip), vehicle: Klucel (hydroxypropylcellulose) (HPC)
[4] = dose: 200.0 mg/kg/injection, schedule: Q01DX009 (ip), vehicle: Klucel (hydroxypropylcellulose) (HPC)
[5] = dose: 50.0 mg/kg/injection, schedule: Q01DX009 (ip), vehicle: saline with Tween-80
[6] = dose: 100.0 mg/kg/injection, schedule: Q01DX009 (ip), vehicle: saline with Tween-80
[7] = dose: 200.0 mg/kg/injection, schedule: Q01DX009 (ip), vehicle: saline with Tween-80
[8] = dose: 100.0 mg/kg/injection, schedule: Q04DX003 (ip), vehicle: Klucel (hydroxypropylcellulose) (HPC)
[9] = dose: 200.0 mg/kg/injection, schedule: Q04DX003 (ip), vehicle: Klucel (hydroxypropylcellulose) (HPC)
[10] = dose: 400.0 mg/kg/injection, schedule: Q04DX003 (ip), vehicle: Klucel (hydroxypropylcellulose) (HPC)
[11] = dose: 100.0 mg/kg/injection, schedule: Q04DX003 (ip), vehicle: saline sonified
[12] = dose: 200.0 mg/kg/injection, schedule: Q04DX003 (ip), vehicle: saline sonified
[13] = dose: 25.0 mg/kg/injection, schedule: Q04DX003 (ip), vehicle: saline
[14] = dose: 50.0 mg/kg/injection, schedule: Q04DX003 (ip), vehicle: saline
[15] = dose: 100.0 mg/kg/injection, schedule: Q04DX003 (ip), vehicle: saline
[16] = dose: 200.0 mg/kg/injection, schedule: Q04DX003 (ip), vehicle: saline
[17] = dose: 50.0 mg/kg/injection, schedule: Q04DX003 (ip), vehicle: saline sonified
[18] = dose: 100.0 mg/kg/injection, schedule: Q01DX009 (ip), vehicle: other
[19] = dose: 25.0 mg/kg/injection, schedule: Q01DX009 (ip), vehicle: saline with Tween-80
[20] = dose: 6.25 mg/kg/injection, schedule: Q04DX003 (ip), vehicle: saline with Tween-80
[21] = dose: 12.5 mg/kg/injection, schedule: Q04DX003 (ip), vehicle: saline with Tween-80
[22] = dose: 25.0 mg/kg/injection, schedule: Q04DX003 (ip), vehicle: saline with Tween-80
[23] = dose: 12.5 mg/kg/injection, schedule: Q01DX009 (ip), vehicle: saline with Tween-80

With `CC1=CCCC(C)(C)C1/C=C/C(C)=C/C(=O)O` (stereo not given) the T/C (dose: 3.13 mg/kg/injection, schedule: Q01DX009 (ip), vehicle: Klucel (hydroxypropylcellulose) (HPC)) was 111 % of control, the T/C (dose: 6.25 mg/kg/injection, schedule: Q01DX009 (ip), vehicle: Klucel (hydroxypropylcellulose) (HPC)) was 103 % of control and the T/C [1] was 99 % of control. For the same compound, the T/C [2] was 99 % of control, the T/C [3] was 104 % of control and the T/C [4] was 110 % of control.

For `Nc1cc(=O)[nH]n1-c1ccccc1`, the T/C [5] was 101 % of control, the T/C [6] was 103 % of control and the T/C [7] was 98 % of control.

For `CC(=O)Nc1cccc([N+](=O)[O-])c1`, the T/C [5] was 100 % of control, the T/C [6] was 100 % of control and the T/C [7] was 104 % of control.

For `CCCCC(CC)CCC(O)CC(C)C` (stereo not given), the T/C (dose: 50.0 mg/kg/injection, schedule: Q01DX009 (ip), vehicle: Klucel (hydroxypropylcellulose) (HPC)) was 100 % of control, the T/C [3] was 95 % of control and the T/C [8] was 104 % of control. For the same compound, the T/C [4] was 100 % of control, the T/C [9] was 100 % of control and the T/C [10] was 100 % of control.

In the case of `O=C(O)c1ccccc1CBr`, the T/C [11] is reported as 104 % of control, the T/C [12] is reported as 104 % of control and the T/C (dose: 400.0 mg/kg/injection, schedule: Q04DX003 (ip), vehicle: saline sonified) is reported as 100 % of control.

`c1nc(SC2=NCCN2)c2[nH]cnc2n1` was tested, and the T/C (dose: 4.12 mg/kg/injection, schedule: Q01DX009 (ip), vehicle: saline) was 118 % of control, the T/C (dose: 6.25 mg/kg/injection, schedule: Q01DX009 (ip), vehicle: saline) was 150 % of control and the T/C (dose: 9.37 mg/kg/injection, schedule: Q01DX009 (ip), vehicle: saline) was 122 % of control. For the same compound, the T/C (dose: 12.5 mg/kg/injection, schedule: Q01DX009 (ip), vehicle: saline) was 119 % of control, the T/C (dose: 12.5 mg/kg/injection, schedule: Q04DX003 (ip), vehicle: saline) was 115 % of control and the T/C (dose: 21.0 mg/kg/injection, schedule: Q01DX009 (ip), vehicle: saline) was 100 % of control. The T/C (dose: 25.0 mg/kg/injection, schedule: Q01DX009 (ip), vehicle: saline) was 123 % of control, the T/C [13] was 115 % of control and the T/C [14] was 123 % of control.

For `COc1cc(Cc2nccc3cc(OC)c(OC)cc23)c(C(C)=O)c(OC)c1`, the T/C (dose: 10.0 mg/kg/injection, schedule: Q01DX009 (ip), vehicle: saline) was 157 % of control and 190 % of control, the T/C (dose: 20.0 mg/kg/injection, schedule: Q01DX009 (ip), vehicle: saline) was 163 % of control and 170 % of control and the T/C [13] was 154 % of control. The T/C [14] was 157 % of control, the T/C [15] was 203 % of control and 206 % of control and the T/C [16] was 93 % of control.

In the case of `O=C1NC2(CCCCCC2)C(=O)N1CN1CCOCC1`, the T/C (dose: 25.0 mg/kg/injection, schedule: Q04DX003 (ip), vehicle: saline sonified) is reported as 90 % of control, the T/C [17] is reported as 95 % of control and the T/C [11] is reported as 104 % of control.

`O=C(O)CCCCCCCC(=O)c1ccccc1` was tested, and the T/C [17] was 100 % of control, the T/C [11] was 104 % of control and the T/C [12] was 95 % of control.

In the case of `CC(C)CCCc1c[nH]c(=O)[nH]c1=O`, the T/C (dose: 100.0 mg/kg/injection, schedule: Q01DX001 (ip), vehicle: Klucel (hydroxypropylcellulose) (HPC)) is reported as 90 % of control, the T/C [3] is reported as 86 % of control and the T/C (dose: 200.0 mg/kg/injection, schedule: Q01DX001 (ip), vehicle: Klucel (hydroxypropylcellulose) (HPC)) is reported as 90 % of control. For the same compound, the T/C [4] was 86 % of control, the T/C (dose: 400.0 mg/kg/injection, schedule: Q01DX001 (ip), vehicle: Klucel (hydroxypropylcellulose) (HPC)) was 90 % of control and the T/C (dose: 400.0 mg/kg/injection, schedule: Q01DX009 (ip), vehicle: Klucel (hydroxypropylcellulose) (HPC)) was 91 % of control.

`S=c1[nH]nc(Nc2ccccc2Cl)s1` was tested, and the T/C [5] was 100 % of control, the T/C [6] was 90 % of control and the T/C [7] was 100 % of control.

`c1csc(C2Nc3ccccc3N2)c1` was tested, and the T/C [5] was 105 % of control, the T/C [6] was 99 % of control and the T/C [7] was 119 % of control.

In the case of `CN(C)c1ccc(CC2Cc3ccccc3C2=O)cc1` (stereo not given), the T/C [18] is reported as 104 % of control, the T/C (dose: 100.0 mg/kg/injection, schedule: Q04DX003 (ip), vehicle: saline with Tween-80) is reported as 90 % of control and the T/C (dose: 200.0 mg/kg/injection, schedule: Q01DX009 (ip), vehicle: other) is reported as 108 % of control. The T/C (dose: 200.0 mg/kg/injection, schedule: Q04DX003 (ip), vehicle: saline with Tween-80) was 100 % of control and the T/C (dose: 400.0 mg/kg/injection, schedule: Q04DX003 (ip), vehicle: saline with Tween-80) was 95 % of control.

In the case of `O=C(Nc1cc(C(F)(F)F)ccc1Cl)Nc1cc(C(F)(F)F)c(Cl)cc1S(=O)(=O)O`, the T/C [14] is reported as 90 % of control, the T/C [15] is reported as 109 % of control and the T/C [16] is reported as 122 % of control.

For `CCCCCCC1CCC(N)CC1` (stereo not given), the T/C [1] was 97 % of control and the T/C [2] was 101 % of control.

In the case of `C[Si](C)(C)C1CO1` (stereo not given), the T/C [5] is reported as 106 % of control, the T/C [6] is reported as 106 % of control and the T/C [7] is reported as 102 % of control.

`O=C1C=CC(=O)N1c1ccc(-c2nc3ccccc3o2)cc1` was tested, and the T/C (dose: 50.0 mg/kg/injection, schedule: Q01DX005 (ip), vehicle: saline with Tween-80) was 121 % of control and the T/C (dose: 100.0 mg/kg/injection, schedule: Q01DX005 (ip), vehicle: saline with Tween-80) was 100 % of control.

For `O=C(Nc1cc(Cl)ccc1Cl)c1ccccc1Cl`, the T/C [3] was 100 % of control, the T/C [8] was 104 % of control and the T/C [4] was 113 % of control. For the same compound, the T/C [9] was 104 % of control and the T/C [10] was 100 % of control.

For `O=C(O)C(CCO)C(=O)C(F)(F)F` (stereo not given), the T/C (dose: 25.0 mg/kg/injection, schedule: Q01DX009 (ip), vehicle: other) was 98 % of control, the T/C (dose: 50.0 mg/kg/injection, schedule: Q01DX009 (ip), vehicle: other) was 98 % of control and the T/C [18] was 91 % of control.

In the case of `CC(=O)CC(=O)C(F)(F)F.CC(=O)CC(=O)C(F)(F)F.[O]=[V]`, the T/C (dose: 3.8 mg/kg/injection, schedule: Q01DX009 (ip), vehicle: Klucel (hydroxypropylcellulose) (HPC)) is reported as 106 % of control and the T/C (dose: 7.5 mg/kg/injection, schedule: Q01DX009 (ip), vehicle: Klucel (hydroxypropylcellulose) (HPC)) is reported as 91 % of control.

For `O=C1NC(=O)C2(CCc3ccccc3C2)N1` (stereo not given), the T/C [19] was 97 % of control, the T/C [5] was 99 % of control and 107 % of control and the T/C [6] was 96 % of control and 104 % of control. For the same compound, the T/C [7] was 96 % of control and 97 % of control and the T/C (dose: 400.0 mg/kg/injection, schedule: Q01DX009 (ip), vehicle: saline with Tween-80) was 92 % of control.

`C/C(=N\NC(=S)N1CCC(O)CC1)c1ccccn1` was tested, and the T/C [20] was 104 % of control, the T/C [21] was 108 % of control and the T/C [22] was 113 % of control.

In the case of `FC(F)(F)C1=N/C(=C2\N=C(C(F)(F)F)N=C2Cl)C(Cl)=N1`, the T/C (dose: 0.39 mg/kg/injection, schedule: Q04DX003 (ip), vehicle: saline with Tween-80) is reported as 100 % of control, the T/C (dose: 0.78 mg/kg/injection, schedule: Q04DX003 (ip), vehicle: saline with Tween-80) is reported as 114 % of control and the T/C (dose: 1.56 mg/kg/injection, schedule: Q01DX009 (ip), vehicle: saline with Tween-80) is reported as 104 % of control. The T/C (dose: 1.56 mg/kg/injection, schedule: Q04DX003 (ip), vehicle: saline with Tween-80) was 100 % of control and 110 % of control, the T/C (dose: 3.12 mg/kg/injection, schedule: Q01DX009 (ip), vehicle: saline with Tween-80) was 116 % of control and the T/C (dose: 3.12 mg/kg/injection, schedule: Q04DX003 (ip), vehicle: saline with Tween-80) was 96 % of control and 100 % of control. The T/C (dose: 6.25 mg/kg/injection, schedule: Q01DX009 (ip), vehicle: saline with Tween-80) was 116 % of control, the T/C [20] was 91 % of control and 100 % of control and the T/C [23] was 111 % of control. The T/C [21] was 88 % of control, the T/C [19] was 94 % of control and the T/C [22] was 88 % of control.

`CC1(C)COC(C)(C)C(=O)O1` was tested, and the T/C (dose: 50.0 mg/kg/injection, schedule: Q04DX003 (ip), vehicle: Klucel (hydroxypropylcellulose) (HPC)) was 95 % of control, the T/C [8] was 90 % of control and the T/C [9] was 100 % of control.

`CCCCCCCCCCCCCC[N+](C)(C)CC(=O)O` was tested, and the T/C [23] was 103 % of control, the T/C [19] was 106 % of control and the T/C [5] was 113 % of control.
